Data on 1 molecule can be found in patent US20030162762A1, “Novel cephalosporin compounds and process for preparing the same” (priority 2000, published 2003).

Converted amounts (≈) assume the structure as drawn.

What all share (experiment): Minimum Inhibitory Concentration (MIC), agar dilution, standard strains
The test system of test [1] is S. aureus 241. It is filed as cell-based, Staphylococcus aureus. As to conditions: Staphylococcus aureus, 241, 20 h, read-out: Minimum Inhibitory Concentration, S. aureus 241.
Test [2] concerns S. aureus 77. The class given is cell-based, Staphylococcus aureus.
In test [3] the test system is S. aureus K311. It is filed as cell-based, Staphylococcus aureus. As to conditions: Staphylococcus aureus, K311, 20 h, read-out: Minimum Inhibitory Concentration, S. aureus K311.
Test [4] has as its system E. faecalis L239. It is filed as cell-based. The following applies: Enterococcus faecalis, L239, 20 h, read-out: Minimum Inhibitory Concentration, E. faecalis L239.
Test [5] has as its system S. epidermidis R005. The class given is cell-based.
For test [6], the system named is E. faecalis EFS004. The class given is cell-based. The following applies: Enterococcus faecalis, EFS004, 20 h, read-out: Minimum Inhibitory Concentration, E. faecalis EFS004.
Test [7] has as its system Staphylococcus aureus giorgio. It is filed as cell-based.
Setting [8] is: Table 2, Mueller-Hinton agar, 37° C., 20 hours.

Turning to `CN[C@H](CC(C)C)C(=O)N[C@H]1C(=O)N[C@@H](CC(N)=O)C(=O)N[C@H]2C(=O)N[C@H]3C(=O)N[C@H](C(=O)N[C@H](C(=O)O)c4cc(O)cc(O)c4-c4cc3ccc4O)[C@H](O)c3ccc(c(Cl)c3)Oc3cc2cc(c3O[C@@H]2O[C@H](CO)[C@@H](O)[C@H](O)[C@H]2O[C@H]2C[C@](C)(N)[C@H](O)[C@H](C)O2)Oc2ccc(cc2Cl)[C@H]1O` [Vancomycin, vancomycin, reference compound], the MIC in test [1] came to 2 µg/mL (≈ 1.38 µM); in test [2] (Staphylococcus aureus, 77, 20 h, read-out: Minimum Inhibitory Concentration, S. aureus 77), 1 µg/mL (≈ 0.69 µM); in test [3] it was 2 µg/mL (≈ 1.38 µM); in test [4], 2 µg/mL (≈ 1.38 µM); in test [5] (Staphylococcus epidermidis, R005, 20 h, read-out: Minimum Inhibitory Concentration, S. epidermidis R005) it was 1 µg/mL (≈ 0.69 µM); in test [6], 2 µg/mL (≈ 1.38 µM). Further, the MIC in test [7] (Staphylococcus aureus, 20 h, read-out: Minimum Inhibitory Concentration, Staphylococcus aureus giorgio) was 1 µg/mL (≈ 0.69 µM). For the same molecule, the “Minimum Inhibitory Concentration, S. aureus 77” value in test [2] (setting [8]) turned out to be 1 µg/mL. Besides, in test [5] (setting [8]), the “Minimum Inhibitory Concentration, S. epidermidis R005” value came to 1 µg/mL. Moreover, the “Minimum Inhibitory Concentration, Staphylococcus aureus giorgio” value in test [7] (setting [8]) stood at 1 µg/mL.
